Test results as given in patent publication US7851467B2, “Carbamate compounds as 5-HT4 receptor agonists” (Theravance, Inc., priority 2005, dated 2010).

Columns and labels:
[1] = Pharmacokinetic study in the rat; type: in vivo; settings: male Sprague-Dawley rats
Experimental: Assay 6: Pharmacokinetic Study in the Rat
Aqueous solution formulations of test compounds were prepared in 0.1% lactic acid at a pH of between about 5 and about 6. Male Sprague-Dawley rats (CD strain, Charles River Laboratories, Wilmington, Mass.) were dosed with test compounds via intravenous administration (IV) at a dose of 2.5 mg/kg or by oral gavage (PO) at a dose of 5 mg/kg. The dosing volume was 1 mL/kg for IV and 2 mL/kg for PO administration. Serial blood samples were collected from animals pre-dose, and at 2 (IV only), 5, 15, and 30 min, and at 1, 2, 4, 8, and 24 hours post-dose. Concentrations of test compounds in blood plasma were determined by liquid chromatography-mass spectrometry analysis (LC-MS/MS) (MDS SCIEX, API 4000, Applied Biosystems, Foster City, Calif.) with a lower limit of quantitation of 1 ng/mL.
Standard pharmacokinetic parameters were assessed by non-compartmental analysis (Model 201 for IV and Model 200 for PO) using WinNonlin (Version 4.0.1, Pharsight, Mountain View, Calif.). The maximum in the curve of test compound concentration in blood plasma vs. time is denoted Cmax. The area under the concentration vs. time curve from the time of dosing to the last measurable concentration (AUC(O-t)) was calculated by the linear trapezoidal rule. Oral bioavailability (F(%)), i.e. the dose-normalized ratio of AUC(O-t) for PO administration to AUC(O-t) for IV administration, can be calculated as: F(%)=AUCPO/AUCIV×DoseIV/DosePO×100%
The compounds of the invention that were tested in this assay had Cmax values between about 0.15 to about 0.35 μg/mL and AUC(0−t) values between about 0.5 to about 1.1 μg·hr/mL.

human 5-HT4(c) receptor = target: T1, human 5-HT4(c) receptor (Homo sapiens, UniProt Q13639); experiment: Radioligand binding assay on 5-HT4(c) human receptors ([3H]-GR113808 displacement); settings: HEK-293 membranes, [3H]-GR113808 at 0.15 nM, read-out: pKi value (converted)
T1 construct: expressed in transfected cells; host or cells: HEK-293
Experimental: Assay 1: Radioligand Binding Assay on 5-HT4(C) Human Receptors a. Membrane Preparation 5-HT4(c)
HEK-293 (human embryonic kidney) cells stably-transfected with human 5-HT4(C) receptor cDNA (Bmax=˜6.0 pmol/mg protein, as determined using [^3H]-GR113808 membrane radioligand binding assay) were grown in T-225 flasks in Dulbecco's Modified Eagles Medium (DMEM) containing 4,500 mg/L D-glucose and pyridoxine hydrochloride (GIBCO-Invitrogen Corp., Carlsbad Calif.: Cat #11965) supplemented with 10% fetal bovine serum (FBS) (GIBCO-Invitrogen Corp.: Cat #10437), 2 mM L-glutamine and (100 units) penicillin-(100 μg) streptomycin/ml (GIBCO-Invitrogen Corp.: Cat #15140) in a 5% CO2, humidified incubator at 37° C. […]
For the membrane preparation, cell pellets were resuspended in ice-cold 50 mM 4-(2-hydroxyethyl)-1-piperazineethanesulphonic acid (HEPES), pH 7.4 (membrane preparation buffer) (40 mL/total cell yield from 30-40 T225 flasks) and homogenized using a polytron disrupter (setting 19, 2×10 s) on ice. […] Protein concentration of the membrane suspension was determined by the method of Bradford (Bradford, 1976). […]
Test compounds were received as 10 mM stock solutions in DMSO and diluted to 400 μM into 50 mM HEPES pH 7.4 at 25° C., containing 0.1% BSA, and serial dilutions (1:5) then made in the same buffer. Non-specific binding was determined in the presence of 1 μM unlabeled GR113808. […]

[2] = blood plasma, dosing IV 2.5 mg/kg or PO 5 mg/kg

T1 sequence (Q13639 1-380 isoform Q13639-4): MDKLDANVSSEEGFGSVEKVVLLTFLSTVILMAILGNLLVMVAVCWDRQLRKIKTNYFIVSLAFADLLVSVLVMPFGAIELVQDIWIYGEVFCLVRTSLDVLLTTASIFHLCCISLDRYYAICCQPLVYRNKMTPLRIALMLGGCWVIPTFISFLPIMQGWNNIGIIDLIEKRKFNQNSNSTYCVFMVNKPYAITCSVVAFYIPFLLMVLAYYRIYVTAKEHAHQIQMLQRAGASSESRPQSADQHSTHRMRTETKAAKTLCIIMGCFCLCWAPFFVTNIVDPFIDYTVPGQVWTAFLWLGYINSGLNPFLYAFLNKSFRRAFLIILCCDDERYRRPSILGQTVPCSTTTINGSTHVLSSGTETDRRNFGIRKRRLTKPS

With `CC(C)n1c(=O)n(C(=O)N[C@H]2C[C@H]3CC[C@@H](C2)N3CCCOC(=O)N2CCN(C(=O)C3CCCO3)CC2)c2ccccc21` (stereo partly drawn) [Example 1, 4-(tetrahydrofuran-2-carbonyl)piperazine-1-carboxylic acid 3-{(1S,3R,5R)-3-[(3-isopropyl-2-oxo-2,3-dihydrobenzoimidazole-1-carbonyl)amino]-8-aza-bicyclo[3.2.1]oct-8-yl}propyl ester] the AUC(0-t) [1, 2] was 970 ng·h/mL, the Cmax [1, 2] was 320 ng/mL and the bioavailability ([1]; plasma, PO 5 mg/kg vs IV 2.5 mg/kg, dose-normalized AUC ratio, read-out: oral bioavailability F(%)) was 55%. It also gave a Ki (human 5-HT4(c) receptor) of 12.6 nM.
